This note sets out measurements from patent US20150246071A1, “TREATMENT COMPOSITIONS” (REOXCYN DISCOVERIES GROUP, INC., priority 2012, published 2015).

The structures appear in SMILES notation.

For one test, the system named is NRF2. Briefly: Western Blot validation of NRF2 nuclear accumulation in HMVEC-L. It is filed as cell-based, human. The note with it: ASEA 1% at 30, 60, 120 min, H2O2 30 min. As to the method:
(§1) 8. A Western Blot analysis was done on extra-nuclear and intra-nuclear fractions, separated by differential centrifugation, of serum starved HMVEC-L cell cultures exposed to <1% of a composition of the invention compared with a positive hydrogen peroxide control to determine phosphorylation events (oxidant action) in the extra-nuclear fraction and NRF2 (antioxidant transcription) in the intra-nuclear fraction at 0, 30, 60, 90 and 120 min intervals.
(§2) Experimental Methods for Western Blot Validation of NRF2 Nuclear Accumulation: HMVEC-L were treated with 1% of a composition of the invention, nuclear extracts were separated through centrifugal differentiation from the extra-nuclear cytosol at 30, 60 and 120 min and subjected to Western Blot analysis for NRF2. In the Western blot experiment the extra-nuclear fraction was probed for phosphorylated proteins using a combination of anti-phospho serine, threonine and tyrosine antibodies. Virtually all cellular processes are regulated by posttranslational modifications and protein phosphorylation is a prevalent mechanism. […]
On the technique in general: A western blot detects proteins with antibodies after separation by electrophoresis.

Test [1] relates to phosphorylated proteins (extra-nuclear fraction). Briefly: Western Blot of protein phosphorylation in extra-nuclear fraction of HMVEC-L. The class given is cell-based, human. The note with it: composition 1%, H2O2 positive control. As to the method:
as §1, §2

For `OO` [H2O2, Hydrogen peroxide], the “NRF2 levels in nuclear extracts (Western Blot)” value with NRF2 is recorded as “did not increase”. Further, the “phosphorylation of extra-nuclear protein (Western Blot)” value in test [1] was “marked increase”.
